Read-outs that look alike come from different tables or passages of the source.
Target: h-cGAS (Homo sapiens (Human), UniProt Q8N884)
Assay: hcGAS Kinase-Glo assay
Format: biochemical
[1] = Table C, raw data in parentheses, read-out: hcGAS IC50
[2] = Table C, IC50 range designation, read-out: hcGAS IC50

Sequence of h-cGAS (Q8N884 whole entry): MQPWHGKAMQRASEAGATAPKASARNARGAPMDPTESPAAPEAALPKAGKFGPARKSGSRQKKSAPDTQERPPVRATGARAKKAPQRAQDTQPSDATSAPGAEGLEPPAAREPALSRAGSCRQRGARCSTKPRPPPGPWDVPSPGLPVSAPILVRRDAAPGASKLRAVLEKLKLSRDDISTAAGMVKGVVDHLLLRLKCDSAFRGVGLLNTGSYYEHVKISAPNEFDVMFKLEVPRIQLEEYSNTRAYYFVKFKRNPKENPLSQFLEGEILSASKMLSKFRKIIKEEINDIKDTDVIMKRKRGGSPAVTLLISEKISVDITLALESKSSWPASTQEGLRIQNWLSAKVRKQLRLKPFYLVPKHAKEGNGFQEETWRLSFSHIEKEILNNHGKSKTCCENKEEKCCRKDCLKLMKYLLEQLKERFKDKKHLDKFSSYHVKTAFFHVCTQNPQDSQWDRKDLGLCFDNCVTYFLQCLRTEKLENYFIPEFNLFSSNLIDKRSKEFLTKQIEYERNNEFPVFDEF

SMILES	IC50 [1] [nM]	IC50 (read-out: hcGAS activity) [nM]	IC50 [2] [nM]
CNCC(=O)N1CCc2[nH]c3c(Cl)c(Cl)ccc3c2C1 [Compound 64, 1-(6,7-dichloro-1,3,4,5-tetrahydro-2H-pyrido[4,3-b]indol-2-yl)-2-(methylamino)ethan-1-one]	1490	1000 to 5000	
Cc1cnc(C(=O)N2CCc3[nH]c4c(Cl)c(Cl)ccc4c3C2)[nH]1 [Compound 10, (6,7-dichloro-1,3,4,5-tetrahydro-2H-pyrido[4,3-b]indol-2-yl)(5-methyl-1H-imidazol-2-yl)methanone]	3220	1000 to 5000	1000 to 5000
CC1c2c([nH]c3c(Cl)c(Cl)ccc23)CCN1C(=O)NO (racemic) [Rac-97, 6,7-dichloro-N-hydroxy-1-methyl-1,3,4,5-tetrahydro-2H-pyrido[4,3-b]indole-2-carboxamide]	821		
O=C(c1ncc(N2CCOCC2)cn1)N1CCc2[nH]c3c(Cl)c(Cl)ccc3c2C1 [Compound 31, (6,7-dichloro-1,3,4,5-tetrahydro-2H-pyrido[4,3-b]indol-2-yl)(5-morpholinopyrimidin-2-yl)methanone]	222	100 to 500	100 to 500
COc1cnc(C(=O)N2CCn3nc4c(Cl)c(Cl)ccc4c3[C@H]2C)nc1 (single isomer, unassigned) [52A*]	> 10000		> 5000
CC1c2c([nH]c3c(Cl)c(Cl)ccc23)CCN1C(=O)c1ncc(N2CCN3CC(F)(F)C[C@H]3C2)cn1 (mixture of isomers) [Rac-50, (6,7-dichloro-1-methyl-1,3,4,5-tetrahydro-2H-pyrido[4,3-b]indol-2-yl)(5-((S)-7,7-difluorohexahydropyrrolo[1,2-a]pyrazin-2(1H)-yl)pyrimidin-2-yl)methanone]	89.5		
CC1c2c([nH]c3c(Cl)c(Cl)ccc23)CCN1C(=O)CN (racemic) [Rac-51, 2-amino-1-(6,7-dichloro-1-methyl-1,3,4,5-tetrahydro-2H-pyrido[4,3-b]indol-2-yl)ethan-1-one]	37.7		
COCCNCC(=O)N1CCc2[nH]c3c(Cl)c(Cl)ccc3c2C1 [Compound 69, 1-(6,7-dichloro-1,3,4,5-tetrahydro-2H-pyrido[4,3-b]indol-2-yl)-2-((2-methoxyethyl)amino)ethan-1-one]	678	1000 to 5000	500 to 1000
NCC(=O)N1Cc2[nH]c3c(Cl)c(Cl)ccc3c2C1 [Compound 65, 2-amino-1-(5,6-dichloro-3,4-dihydropyrrolo[3,4-b]indol-2(1H)-yl)ethan-1-one]	933		500 to 1000
C[C@H]1c2c3c(-c4ccn(C)n4)cc(Cl)c(Cl)c3nn2CCN1C(=O)CO (single isomer, unassigned) [61B*]	59.9		< 100
CC1c2c([nH]c3c(Cl)c(Cl)ccc23)CCN1C(=O)c1nccc(OCCO)n1 (racemic) [Rac-70, (6,7-dichloro-1-methyl-1,3,4,5-tetrahydro-2H-pyrido[4,3-b]indol-2-yl)(4-(2-hydroxyethoxy)pyrimidin-2-yl)methanone]	78.7	< 100	
COCCOCn1c2c(c3ccc(Cl)c(Cl)c31)CN(C(=O)c1ncc(OC)cn1)CC2 [Compound 23, (6,7-dichloro-5-((2-methoxyethoxy)methyl)-1,3,4,5-tetrahydro-2H-pyrido[4,3-b]indol-2-yl)(5-methoxypyrimidin-2-yl)methanone]	2250	1000 to 5000	1000 to 5000
COc1cnc(C(=O)N2CCc3[nH]c4c(Cl)c(Cl)cc(C)c4c3C2C)nc1 (racemic) [Rac-103, (6,7-dichloro-1,9-dimethyl-1,3,4,5-tetrahydro-2H-pyrido[4,3-b]indol-2-yl)(5-methoxypyrimidin-2-yl)methanone]	115		
COCCOc1ccnc(C(=O)N2CCc3[nH]c4c(Cl)c(Cl)ccc4c3C2C)n1 (racemic) [Rac-67, (6,7-dichloro-1-methyl-1,3,4,5-tetrahydro-2H-pyrido[4,3-b]indol-2-yl)(4-(2-methoxyethoxy)pyrimidin-2-yl)methanone]	251	< 100	
COc1ccnc(C(=O)N2CCc3[nH]c4c(Cl)c(Cl)ccc4c3C2C)n1 (racemic) [Rac-68, (6,7-dichloro-1-methyl-1,3,4,5-tetrahydro-2H-pyrido[4,3-b]indol-2-yl)(4-methoxypyrimidin-2-yl)methanone]	94.5	< 100	
C[C@@H]1c2c3c(-c4ccn(C)n4)cc(Cl)c(Cl)c3nn2CCN1C(=O)CO (single isomer, unassigned) [61A*]	> 10000		> 5000
O=C(c1nnn[nH]1)N1CCc2[nH]c3c(Cl)c(Cl)ccc3c2C1 [Compound 7, (6,7-dichloro-1,3,4,5-tetrahydro-2H-pyrido[4,3-b]indol-2-yl)(1H-tetrazol-5-yl)methanone]	3300	1000 to 5000	1000 to 5000
CNc1cnc(C(=O)N2CCc3[nH]c4c(Cl)c(Cl)ccc4c3C2C)nc1 (racemic) [Rac-46, (6,7-dichloro-1-methyl-1,3,4,5-tetrahydro-2H-pyrido[4,3-b]indol-2-yl)(5-(methylamino)pyrimidin-2-yl)methanone]	51.4	< 100	

SMILES	IC50 [1] [nM]	IC50 (read-out: hcGAS activity) [nM]	IC50 [2] [nM]
CC1c2c([nH]c3c(Cl)c(Cl)ccc23)CCN1C(=O)c1nccc(OCCN(C)C)n1 (racemic) [Rac-88, (6,7-dichloro-1-methyl-1,3,4,5-tetrahydro-2H-pyrido[4,3-b]indol-2-yl)(4-(2-(dimethylamino)ethoxy)pyrimidin-2-yl)methanone]	110		
O=C(c1ncc[nH]1)N1CCc2[nH]c3c(Cl)c(Cl)ccc3c2C1 [Compound 5, (6,7-dichloro-1,3,4,5-tetrahydro-2H-pyrido[4,3-b]indol-2-yl)(1H-imidazol-2-yl)methanone]	878	500 to 1000	500 to 1000
Nc1ccnc(C(=O)N2CCc3[nH]c4c(Cl)c(Cl)ccc4c3C2)n1 [Compound 14, (4-aminopyrimidin-2-yl)(6,7-dichloro-1,3,4,5-tetrahydro-2H-pyrido[4,3-b]indol-2-yl)methanone]	1520	1000 to 5000	1000 to 5000
CC1c2c([nH]c3c(Cl)c(Cl)ccc23)CCN1C(=O)c1ncc(N2CCN(C)CC2)cn1 (racemic) [Rac-48, (6,7-dichloro-1-methyl-1,3,4,5-tetrahydro-2H-pyrido[4,3-b]indol-2-yl)(5-(4-methylpiperazin-1-yl)pyrimidin-2-yl)methanone]	52		
NNC(=O)N1CCc2[nH]c3c(Cl)c(Cl)ccc3c2C1 [Compound 59, 6,7-dichloro-1,3,4,5-tetrahydro-2H-pyrido[4,3-b]indole-2-carbohydrazide]	620	100 to 500	100 to 500
COc1cnc(C(=O)N2CCc3[nH]c4c(Cl)c(Cl)ccc4c3C2C)nc1OC (racemic) [Rac-83, (6,7-dichloro-1-methyl-1,3,4,5-tetrahydro-2H-pyrido[4,3-b]indol-2-yl)(4,5-dimethoxypyrimidin-2-yl)methanone]	206		
O=C(c1ncc(F)cn1)N1CCc2[nH]c3c(Cl)c(Cl)ccc3c2C1 [Compound 15, (6,7-dichloro-1,3,4,5-tetrahydro-2H-pyrido[4,3-b]indol-2-yl)(5-fluoropyrimidin-2-yl)methanone]	842	500 to 1000	500 to 1000
COc1ccc(C(=O)N2CCc3[nH]c4c(Cl)c(Cl)ccc4c3C2)nn1 [Compound 56, (6,7-dichloro-1,3,4,5-tetrahydro-2H-pyrido[4,3-b]indol-2-yl)(6-methoxypyridazin-3-yl)methanone]	4350		1000 to 5000
C[C@H]1c2c([nH]c3c(Cl)c(Cl)ccc23)CCN1C(=O)c1ncc(C#N)[nH]1 (single isomer, unassigned) [95B*]	587		
CONC(=O)N1CCc2[nH]c3c(Cl)c(Cl)ccc3c2C1C (racemic) [Rac-98, 6,7-dichloro-N-methoxy-1-methyl-1,3,4,5-tetrahydro-2H-pyrido[4,3-b]indole-2-carboxamide]	1320		
C[C@@H]1c2c([nH]c3c(Cl)c(Cl)ccc23)CCN1C(=O)CN (single isomer, unassigned) [51A*]	> 10000		> 5000
NC(=O)C(=O)N1CCc2[nH]c3c(Cl)c(Cl)ccc3c2C1 [Compound 57, 2-(6,7-dichloro-1,3,4,5-tetrahydro-2H-pyrido[4,3-b]indol-2-yl)-2-oxoacetamide]	4210	1000 to 5000	1000 to 5000
COc1cnc(C(=O)N2CCc3[nH]c4c(Cl)c(Cl)cc(SC)c4c3C2C)nc1 (racemic) [Rac-101, (6,7-dichloro-1-methyl-9-(methylthio)-1,3,4,5-tetrahydro-2H-pyrido[4,3-b]indol-2-yl)(5-methoxypyrimidin-2-yl)methanone]	409		
CC1c2c([nH]c3c(Cl)c(Cl)ccc23)CCN1C(=O)c1ncc(N(C)CCN(C)C)cn1 (racemic) [Rac-47, (6,7-dichloro-1-methyl-1,3,4,5-tetrahydro-2H-pyrido[4,3-b]indol-2-yl)(5-((2-(dimethylamino)ethyl)(methyl)amino)pyrimidin-2-yl)methanone]	50.1		
COc1cnc(C(=O)N2CCn3nc4c(Cl)c(Cl)ccc4c3[C@@H]2C)nc1 (single isomer, unassigned) [52B*]	71.5		< 100
C[C@H]1c2c([nH]c3c(Cl)c(Cl)ccc23)CCN1C(=O)CN (single isomer, unassigned) [51B*]	17.8		< 100
NCC(=O)N1C2COCC1c1c([nH]c3c(Cl)c(Cl)ccc13)C2 (centres unmarked) [Compound 66, 2-amino-1-(8,9-dichloro-1,2,4,5,6,7-hexahydro-1,5-epiminooxocino[5,4-b]indol-12-yl)ethan-1-one]	314	100 to 500	100 to 500
COc1cnc(C(=O)N2CCc3[nH]c4c(Cl)c(Cl)cc(OC)c4c3C2C)nc1 (racemic) [Rac-132, (6,7-dichloro-9-methoxy-1-methyl-1,3,4,5-tetrahydro-2H-pyrido[4,3-b]indol-2-yl)(5-methoxypyrimidin-2-yl)methanone]	45.5		
